From PubChem BioAssay AID1645866 (Buhrlage Lab, Dana-Farber Cancer Institute and Novartis …, 2021) come the findings set out here.

Activity calls are given as the source filed them.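 Rule for the calls: active = in confirmatory dose-response testing, peak deubiquitinase inhibition of 30% or more; inactive = the rest.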 Bounds are passed on as bounds.

Ubiquitin carboxyl-terminal hydrolase 28 (Homo sapiens), sequence (Q96RU2 whole entry, looked up): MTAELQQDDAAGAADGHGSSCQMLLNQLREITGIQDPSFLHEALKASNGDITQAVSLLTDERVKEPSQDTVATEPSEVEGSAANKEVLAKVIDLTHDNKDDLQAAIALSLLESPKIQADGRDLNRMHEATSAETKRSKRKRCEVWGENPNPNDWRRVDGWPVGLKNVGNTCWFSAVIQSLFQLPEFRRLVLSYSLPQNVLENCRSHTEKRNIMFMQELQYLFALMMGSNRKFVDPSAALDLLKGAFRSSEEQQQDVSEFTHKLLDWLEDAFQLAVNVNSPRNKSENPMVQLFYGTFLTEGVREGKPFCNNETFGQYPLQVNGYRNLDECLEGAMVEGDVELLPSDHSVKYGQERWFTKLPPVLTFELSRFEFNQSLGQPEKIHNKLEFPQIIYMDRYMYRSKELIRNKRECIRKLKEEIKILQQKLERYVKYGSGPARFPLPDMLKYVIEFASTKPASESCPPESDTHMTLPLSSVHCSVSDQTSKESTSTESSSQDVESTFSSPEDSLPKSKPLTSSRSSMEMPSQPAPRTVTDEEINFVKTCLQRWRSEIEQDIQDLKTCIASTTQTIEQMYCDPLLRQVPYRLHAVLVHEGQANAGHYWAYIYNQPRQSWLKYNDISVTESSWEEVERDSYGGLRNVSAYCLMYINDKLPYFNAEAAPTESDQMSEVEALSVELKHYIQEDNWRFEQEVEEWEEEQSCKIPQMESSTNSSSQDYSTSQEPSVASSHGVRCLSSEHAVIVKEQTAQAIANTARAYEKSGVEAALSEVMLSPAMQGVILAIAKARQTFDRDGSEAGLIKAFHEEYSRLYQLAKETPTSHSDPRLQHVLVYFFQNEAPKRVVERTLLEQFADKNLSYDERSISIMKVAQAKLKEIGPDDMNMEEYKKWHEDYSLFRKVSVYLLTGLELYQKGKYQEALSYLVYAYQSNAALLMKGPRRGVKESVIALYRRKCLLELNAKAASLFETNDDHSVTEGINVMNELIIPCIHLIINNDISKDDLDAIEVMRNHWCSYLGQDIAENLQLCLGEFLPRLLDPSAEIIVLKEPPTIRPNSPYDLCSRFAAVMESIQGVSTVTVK

This assay has as its target Ubiquitin carboxyl-terminal hydrolase 28 (Homo sapiens) (UniProt Q96RU2). As to the kind of experiment: Ubiquitin-specific peptidase 28 DUB inhibitors, biochemical concentration-dependence assay, validation of primary screening hits (AID 1645866). To be noted: purified USP28, ubiquitin-rhodamine fluorescence, 30 min.
For the molecule `Cc1cc(C(=O)Nc2ccc3nc(N4CCN(c5ncccn5)CC4)cc(C)c3c2)ccc1[N+](=O)[O-]`, the IC50 was 14.2 µM. Regarding `COCCN(C1CCN(CCc2ccc(Cl)cc2)CC1)S(=O)(=O)c1cccc2cccnc12`, the IC50 is > 50 µM (inactive). For the molecule `COc1ccc(-c2nonc2NC(=O)C(c2ccccc2)c2ccccc2)cc1OC`, the IC50 is > 50 µM (inactive). Take `O=c1[nH]cccc1NS(=O)(=O)c1ccc(F)cc1`: the IC50 is > 50 µM (inactive). As for `COc1cc2c(c(OCC(=O)Nc3ccc4c(c3)OCCO4)c1)C(=O)O[C@@H](C)CCCC(=O)CCCCC2`, the IC50 is 20.7 µM. For `NS(=O)(=O)c1ccc(NS(=O)(=O)c2ccc(NC(=O)Nc3ccc(Cl)cc3)cc2)cc1` the value was 3.85 µM; for `O=S(=O)(c1ccc(F)cc1)N1CCCC1c1ccnc(Nc2cnccn2)n1` (centres undefined), > 50 µM (inactive); for `NC(=O)C1(N2CCCCC2)CCN(C(=O)c2[nH]nc3c2CCc2ccccc2-3)CC1`, > 50 µM (inactive). For `CC(CCc1ccccc1)NC(=O)Cn1c(=O)c2cccn2c2ccccc21` (centres undefined), the IC50 was 14.3 µM.

Consider `COc1cc(C(=O)Nc2ccc(-c3csc(C)n3)cc2)cc(OC)c1OC`, for which the IC50 is 4.04 µM. In the case of `Cn1c(=O)/c(=C/c2ccccc2)[nH]c(=O)/c1=C/c1ccccc1` it was 10.2 µM; in that of `COc1ccc(/C=C/C(=O)Nc2c3c(nc4c2CCC4)CCCC3)cc1`, 12.1 µM. On to `O=C1CC(c2ccco2)Cc2[nH]c(=O)c(C(=O)Nc3ccc(Cl)cc3)cc21` (centres undefined), for which the IC50 was 3.08 µM. Regarding `CCOc1ccc(CC(=O)Nc2ccc(-c3cn4cccnc4n3)cc2)cc1`, the IC50 was 14.6 µM. In the case of `COc1ccc(OC)c(C2CC(=O)Nc3n[nH]c(-c4ccccc4)c32)c1` (centres undefined), the IC50 was 28.5 µM. For `CCc1nc(N2CCCC2=O)sc1C(=O)Nc1cccc(C(C)=O)c1` the value was 17.1 µM.

For the molecule `Cc1cc(NC(=O)COc2ccc3oc4ccccc4c3c2)no1`, the IC50 was 26.5 µM. Turning to `Cc1ccc(CNC(=O)c2cnc3ccccc3n2)cc1`, the IC50 was > 50 µM (inactive).

Consider `COc1ccc(-n2c(=O)c(CCC(=O)O)nc3ccccc32)cc1`, for which the IC50 is > 50 µM (inactive). With `Cc1ccc(C)c(S(=O)(=O)N2CCN(c3ccc4nnc(-c5ccco5)n4n3)CC2)c1`, the IC50 is > 50 µM (inactive). `CC(c1ccccc1)n1c(-c2ccc(F)cc2)nc2c(c(=O)c3ccccc3n2C)c1=O` (centres undefined): the IC50 is 1.85 µM. As to `Cc1cccc(NC(=O)c2ccn(COc3ccc(F)cc3F)n2)c1C`, the IC50 was > 50 µM (inactive). Turning to `CCC(C(=O)NCc1ccncc1)N(c1cccc(Cl)c1)S(C)(=O)=O` (centres undefined), the IC50 is > 50 µM (inactive). With `Cc1ccc(S(=O)(=O)N2CCC3(CC2)NC(=O)c2ccccc2N3)c(C)c1`, the half-inhibitory concentration (IC50) was 31.3 µM.

Regarding `FC(F)(F)c1ccccc1CCN1CCc2nc3ncc(Cl)cc3cc2C1`, the IC50 is > 50 µM (inactive). With `COc1ccc(Cl)cc1N1C(=O)[C@H]2[C@@H](C1=O)[C@]1(C(=O)Nc3c(C)cc(C)cc31)N1CCC[C@@H]21`, the IC50 is > 50 µM (inactive).

As to `O=C1C/C(=C\c2cccc(Cl)c2)Cc2ccccc21`, the IC50 is 13 µM. Turning to `Cc1ccccc1C(=O)OCCN1C(=O)c2cccc3c(N4CCCCC4)ccc(c23)C1=O`, the IC50 is > 50 µM (inactive). As to `O=c1c2cnc3nc(-c4cccnc4)nn3c2ccn1CCc1ccccc1`, the IC50 was > 50 µM (inactive). For the molecule `CC(C)c1cc2c(c(O)c1O)[C@@]13CCCC(C)(C)[C@@H]1C[C@@H]2OC3=O`, the IC50 is 23.9 µM. With `CCOc1ccc(S(=O)(=O)Nc2ccc[nH]c2=O)cc1`, the IC50 was > 50 µM (inactive). On to `COc1ccc(-c2nc3n(n2)C(CC(=O)Nc2cccc4ccccc24)C(=O)N3)cc1` (centres undefined), for which the IC50 is 4.08 µM. For `O=C(CSc1ncnc2c1oc1ccccc12)Nc1ccc2c(c1)OCCO2`, the IC50 was 17.1 µM.

On to `Cc1c(C)c2ccc(OCC(=O)NCc3ccncc3)c(C)c2oc1=O`, for which the IC50 is 49.2 µM. For `COc1c2nc3ccccc3oc-2cc(=O)c1OC`, the IC50 was > 50 µM (inactive).

As to `Cc1ncc(CO)c2c1Oc1nc(-c3cccc(Cl)c3)nc(SCC(=O)N3CCCCC3)c1C2`, the IC50 is > 50 µM (inactive).

Regarding `c1ccc(CCN2CCc3nc4cccnc4cc3C2)nc1`, the IC50 is > 50 µM (inactive). As to `C/C=C1/C2=CCCN3C(=O)O[C@H]([C@H]1O)[C@H]23`, the IC50 was 2.94 µM. With `Fc1cccc(Cn2cc(-c3noc(-c4cccnc4)n3)nn2)c1`, the IC50 is 29.1 µM. Turning to `N#Cc1ccc(NC(=O)Nc2cccn(Cc3ccccc3Br)c2=O)cc1`, the IC50 is 4.34 µM.

As for `CN(C)c1ccc(/C=N/NC(=O)c2ccc(Cl)cc2)cc1`, the IC50 is 16.7 µM. For `CC(C)NS(=O)(=O)c1ccc(CCC(=O)Nc2ccc3c(c2)OCCO3)cc1`, the IC50 is 1.13 µM.

Take `Cc1ccc2nc(N3CCc4ccccc4C3)c3nncn3c2c1`: the IC50 is > 50 µM (inactive). For `O=C(Cn1c(=O)n(CC(=O)NC2CCCC2)c(=O)c2ccccc21)Nc1cc(Cl)ccc1Cl` the value was 4.52 µM; for `COC1=CC(=O)c2c(O)c3c(c(C)c2C1=O)C[C@@]1(O)[C@H](O[C@H]2CC[C@H](O[C@H]4C[C@@](C)(O)[C@H](OC(=O)c5c(C)ccc(C)c5O)[C@H](C)O4)[C@@H](C)O2)C(=O)C(C(C)=O)=C(O)[C@@]1(O)C3=O`, 2.27 µM; for `CC(=O)N1Cc2ccccc2CC2(CCCN(CC3CCOCC3)C2)C1` (centres undefined), > 50 µM (inactive). On to `Cc1ccc(Cn2nnc(C(=O)NCc3ccco3)c2-n2cccc2)cc1`, for which the IC50 is 6.49 µM. Regarding `CCOC(=O)c1ccc(NC(=O)Cn2c(=O)n(CC(=O)NCCc3ccc(OC)c(OC)c3)c(=O)c3sccc32)cc1`, the IC50 was 1.96 µM. In the case of `Cc1noc(C)c1COc1cccc(C(=O)Nc2cc(Cl)ccc2-n2cncn2)c1`, the IC50 was > 50 µM (inactive). For `Cc1cc(C(=O)NC2(O)C(=O)c3ccccc3C2=O)n(C)n1` the value was 19 µM; for `Nc1nc(-c2ccc[nH]2)cs1`, > 50 µM (inactive); for `Cc1ccc2cc(CCNC(=O)c3cccc(Br)c3)c(=O)[nH]c2c1`, 37.2 µM. For `Cn1c(COc2ccccc2)nnc1SCC(=O)Nc1ccc(N2CCOCC2)cc1` the value was 2.43 µM.

With `O=C(CC1Oc2ccccc2NC1=O)Nc1ccccc1Br` (centres undefined), the concentration for half-maximal inhibition (IC50) was 38 µM.

As to `Cc1ccc(NC(=O)Cn2cc(S(=O)(=O)N3CCCC3)ccc2=O)cc1`, the IC50 was 17.2 µM.

Consider `Cc1nn(Cc2ccccc2)c(Cl)c1C(=O)NC1CCCc2ccccc21` (centres undefined), for which the IC50 is > 50 µM (inactive). Regarding `COc1cnc(CSc2ncccn2)cc1OCC(=O)Nc1cc(C)ccc1C`, the IC50 is > 50 µM (inactive).

For `Cc1nc(Nc2c3ccccc3nc3ccccc23)sc1C`, the IC50 was > 50 µM (inactive). In the case of `Oc1sc(C=Nc2cc(Cl)ccc2Cl)c2ccccc12` it was 2.98 µM. In the case of `CCN(C(=O)c1cc2c(s1)-c1ccccc1OC2)c1ccccc1F` it was 19.6 µM; in that of `N#Cc1cccc(S(=O)(=O)N2CCc3nc4ccccc4n3CC2)c1`, 21.7 µM. `CN(CCCNC(=O)c1cccc2c1SCCC2=O)c1ccccc1`: the IC50 was > 50 µM (inactive). `COc1cc(NC(=O)c2cc(-c3ccncc3)n(-c3ccc(F)cc3)n2)cc(OC)c1`: the IC50 is 12 µM. As to `c1ccc2c(c1)ccc1nnc(-c3ccc4c(c3)OCO4)n12`, the IC50 was > 50 µM (inactive).
